For this test, the system named is recombinant NL4-3 virus (Renilla luciferase) in MT-2 cells. The experiment in a line: HIV cell culture assay (antiviral activity, luciferase readout in infected MT-2 cells). The following applies: Renilla. It counts as cell-based. In short, it runs like this:
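EC50 derived via median-effect equation from luciferase activity in MT-2 cells after 4–5 day infection, compound serially diluted. Virus: recombinant NL4-3 with Renilla luciferase replacing part of nef, made in 293T cells.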

Where [1] appears, read: NL43, read-out: Activity, antiviral activity class, recombinant NL4-3 Renilla luciferase virus in MT-2 cells.
The mark [2] stands for this setting: NL43, recombinant NL4-3 Renilla luciferase virus in MT-2 cells.

The source of these data is patent publication US10035760B2, “Inhibitors of human immunodeficiency virus replication” (priority 2013, dated 2018).

Where two headings read alike, the source gives them in different places. Some results are limits rather than exact numbers.

For the compound `Cc1ccccc1S(=O)(=O)NC(=O)N[C@@H](Cc1ccc(-c2ccccc2)cc1)C(=O)N(C)c1ccc2c(c1)OCO2` [Example 69, (S)-3-([1,1′-biphenyl]-4-yl)-N-(benzo[d][1,3]dioxol-5-yl)-N-methyl-2-(3-(o-tolylsulfonyl)ureido)propanamide], the EC50 under setting [1] fell in the range of 10000 to 100000 nM.
The same measure, in the same setting: the value for `Cc1ccccc1S(=O)(=O)NC(=O)N[C@@H](Cc1ccccc1F)C(=O)N(C)c1ccc2c(c1)OCO2` [Example 70, (S)—N-(benzo[d][1,3]dioxol-5-yl)-3-(2-fluorophenyl)-N-methyl-2-(3-(o-tolylsulfonyl)ureido)propanamide] was 100 to 1000 nM.
As to `Cc1ccccc1S(=O)(=O)NC(=O)N[C@@H](Cc1cccc(C(F)(F)F)c1)C(=O)N(C)c1ccc2c(c1)OCO2` [Example 71, (S)—N-(benzo[d][1,3]dioxol-5-yl)-N-methyl-2-(3-(o-tolylsulfonyl)ureido)-3-(3-(trifluoromethyl)phenyl)propanamide], under setting [1], the EC50 was 100 to 1000 nM.
Take `Cc1ccc(C[C@H](NC(=O)NS(=O)(=O)c2ccccc2C)C(=O)N(C)c2ccc3c(c2)OCO3)cc1` [Example 72, (S)—N-(benzo[d][1,3]dioxol-5-yl)-N-methyl-3-(p-tolyl)-2-(3-(o-tolylsulfonyl)ureido)propanamide]: the EC50 under setting [1] was in the range of 100 to 1000 nM and the EC50 under setting [2] came to 580 nM.
For `CC(=O)Nc1ccc(C[C@H](NC(=O)NS(=O)(=O)c2ccccc2C)C(=O)N(C)c2ccc3c(c2)OCO3)cc1` [Example 73, (S)-3-(4-acetamidophenyl)-N-(benzo[d][1,3]dioxol-5-yl)-N-methyl-2-(3-(o-tolylsulfonyl)ureido)propanamide], under setting [2], the EC50 was greater than 100000 nM.
Turning to `Cc1ccccc1S(=O)(=O)NC(=O)N[C@@H](Cc1ccc(Cl)cc1Cl)C(=O)N(C)c1ccc2c(c1)OCO2` [Example 74, (S)—N-(benzo[d][1,3]dioxol-5-yl)-3-(2,4-dichlorophenyl)-N-methyl-2-(3-(o-tolylsulfonyl)ureido)propanamide], the EC50 was 1000 to 10000 nM under setting [1] and 3880 nM under setting [2].
In the case of `Cc1ccccc1S(=O)(=O)NC(=O)N[C@@H](Cc1cc(F)c(F)cc1F)C(=O)N(C)c1ccc2c(c1)OCO2` [Example 75, (S)—N-(benzo[d][1,3]dioxol-5-yl)-N-methyl-2-(3-(o-tolylsulfonyl)ureido)-3-(2,4,5-trifluorophenyl)propanamide], the EC50 is, setting by setting: under setting [1], 100 to 1000 nM; under setting [2], 290 nM.
`Cc1ccccc1S(=O)(=O)NC(=O)N[C@@H](Cc1ccccc1Br)C(=O)N(C)c1ccc2c(c1)OCO2` [Example 76, (S)—N-(benzo[d][1,3]dioxol-5-yl)-3-(2-bromophenyl)-N-methyl-2-(3-(o-tolylsulfonyl)ureido)propanamide]: the EC50 under setting [1] lay within 1000 to 10000 nM.
Regarding `Cc1ccccc1S(=O)(=O)NC(=O)N[C@@H](Cc1ccccc1C#N)C(=O)N(C)c1ccc2c(c1)OCO2` [Example 77, (S)—N-(benzo[d][1,3]dioxol-5-yl)-3-(2-cyanophenyl)-N-methyl-2-(3-(o-tolylsulfonyl)ureido)propanamide], under setting [1], the EC50 was in the range of 1000 to 10000 nM.
On the same count and under the same terms, the value for `COc1cccc(C[C@H](NC(=O)NS(=O)(=O)c2ccccc2C)C(=O)N(C)c2ccc3c(c2)OCO3)c1` [Example 78, (S)—N-(benzo[d][1,3]dioxol-5-yl)-3-(3-methoxyphenyl)-N-methyl-2-(3-(o-tolylsulfonyl)ureido)propanamide] was 100 to 1000 nM.
Still for that read-out and setting: the value for `Cc1ccccc1S(=O)(=O)NC(=O)N[C@@]1(C(=O)N(C)c2ccc3c(c2)OCO3)C[C@H]1c1ccccc1` [Example 79, (1S,2S)—N-(benzo[d][1,3]dioxol-5-yl)-N-methyl-2-phenyl-1-(3-(o-tolylsulfonyl)ureido)cyclopropanecarboxamide] was 10000 to 100000 nM.
With `Cc1ccccc1S(=O)(=O)NC(=O)N[C@@H](Cc1cccc(C(N)=O)c1)C(=O)N(C)c1ccc2c(c1)OCO2` [Example 80, (S)-3-(3-(benzo[d][1,3]dioxol-5-yl(methyl)amino)-3-oxo-2-(3-(o-tolylsulfonyl)ureido)propyl)benzamide], the EC50 under setting [2] is greater than 100000 nM.
On to `Cc1ccccc1S(=O)(=O)NC(=O)N[C@@H](Cc1cccc(S(=O)(=O)N2CCOCC2)c1)C(=O)N(C)c1ccc2c(c1)OCO2` [Example 81, (S)—N-(benzo[d][1,3]dioxol-5-yl)-N-methyl-3-(3-(morpholinosulfonyl)phenyl)-2-(3-(o-tolylsulfonyl)ureido)propanamide], for which the EC50 under setting [1] was 10000 to 100000 nM.
Same read-out and setting: the value for `Cc1ccccc1S(=O)(=O)NC(=O)N[C@@H](Cc1ccc(O)cc1)C(=O)N(C)c1ccc2c(c1)OCO2` [Example 82, (S)—N-(benzo[d][1,3]dioxol-5-yl)-3-(4-hydroxyphenyl)-N-methyl-2-(3-(o-tolylsulfonyl)ureido)propanamide] was 1000 to 10000 nM.
As to `Cc1ccccc1S(=O)(=O)NC(=O)N[C@@H](Cc1cccc2ccccc12)C(=O)N(C)c1ccc2c(c1)OCO2` [Example 83, (S)—N-(benzo[d][1,3]dioxol-5-yl)-N-methyl-3-(naphthalen-1-yl)-2-(3-(o-tolylsulfonyl)ureido)propanamide], the EC50 was 1000 to 10000 nM under setting [1] and 4280 nM under setting [2].
The matching figures for `Cc1ccccc1S(=O)(=O)NC(=O)N[C@H](C(=O)N(C)c1ccc2c(c1)OCO2)[C@H]1CCc2ccccc21` [Example 84, (S)—N-(benzo[d][1,3]dioxol-5-yl)-2-((S)-2,3-dihydro-1H-inden-1-yl)-N-methyl-2-(3-(o-tolylsulfonyl)ureido)acetamide]: 10000 to 100000 nM and 22100 nM.
As for `Cc1ccccc1S(=O)(=O)NC(=O)N[C@@H](Cc1cccc(F)c1)C(=O)N(C)c1ccc2c(c1)OCO2` [Example 85, (S)—N-(benzo[d][1,3]dioxol-5-yl)-3-(3-fluorophenyl)-N-methyl-2-(3-(o-tolylsulfonyl)ureido)propanamide], the EC50 under setting [1] fell in the range of 100 to 1000 nM.
Still for that read-out and setting: the value for `CN(C(=O)[C@@H](Cc1ccccc1)NC(=O)NS(=O)(=O)c1ccccc1)c1ccc2c(c1)OCO2` [Example 86] was 10000 to 100000 nM.
Still for that read-out and setting: the value for `CN(C(=O)[C@H](Cc1ccccc1)NC(=O)NS(=O)(=O)c1ccccc1)c1ccccc1` [Example 87, (S)—N-methyl-N, 3-diphenyl-2-(3-(phenylsulfonyl)ureido)propanamide] was 100 to 1000 nM.
With `CN(C(=O)[C@H](Cc1ccccc1)NC(=O)NS(=O)(=O)c1ccccc1)c1ccc(Cl)cc1` [Example 88], the EC50 reads like this: under setting [1], 100 to 1000 nM; under setting [2], 450 nM.
On to `COc1cccc(N(C)C(=O)[C@H](Cc2ccccc2)NC(=O)NS(=O)(=O)c2ccccc2)c1` [Example 89], for which, under setting [1], the EC50 lay within 100 to 1000 nM.
Still for that read-out and setting: the value for `Cc1cccc(N(C)C(=O)[C@H](Cc2ccccc2)NC(=O)NS(=O)(=O)c2ccccc2)c1` [Example 90] was 100 to 1000 nM; that for `CN(C(=O)[C@H](Cc1ccccc1)NC(=O)NS(=O)(=O)c1ccccc1)c1ccc(F)cc1` [Example 91] was 100 to 1000 nM; that for `COc1ccc(N(C)C(=O)[C@H](Cc2ccccc2)NC(=O)NS(=O)(=O)c2ccccc2)cc1` [Example 92] was 100 to 1000 nM.
For the compound `CN(C(=O)[C@H](Cc1ccccc1)NC(=O)NS(=O)(=O)c1ccccc1)c1cccc(F)c1` [Example 93], the EC50 runs as follows: under setting [1], 1000 to 10000 nM; under setting [2], 1590 nM.
Regarding `CN(C(=O)[C@H](Cc1ccccc1)NC(=O)NS(=O)(=O)c1ccccc1)c1cccc2ccccc12` [Example 94, (S)—N-methyl-N-(naphthalen-1-yl)-3-phenyl-2-(3-(phenylsulfonyl)ureido)-propanamide], under setting [1], the EC50 was 10000 to 100000 nM.
